From article PMC3362725, “An open-label, phase 1 study evaluating safety, tolerability, and pharmacokinetics of linifanib (ABT-869) in Japanese patients with solid tumors” (Cancer Chemotherapy and Pharmacology, 2012)
Values joined by “and” are separate entries in the source; they are usually repeats but may differ in a detail not shown here. Equal values may be shown once. Read-outs that look alike come from different tables or passages of the source.

Legend:
[1] = design: method as in PMID 19720910; settings: cited from earlier work
[2] = design: method as in earlier work; settings: Caucasian patients, 0.25 mg/kg single dose, mean ± SD, N 13; cited from earlier work
[3] = Pharmacokinetics of oral linifanib in plasma and urine, non-compartmental analysis, phase 1 study; type: in vivo, human (Japanese patients with solid tumors); settings: for DN AUC24 / DN C max: dose-normalized; for AUC: read-out: AUC24
Protocol: Pharmacokinetic sampling occurred pre-dose and 0.5, 1, 2, 3, 4, 6, 8, and 24 h after single-dose linifanib on Cycle (C) 1D1, and pre-dose and 0.5, 1, 2, 3, 4, 6, and 8 h after multiple once-daily doses on C1D15. Urine was collected for 24-h after the C1D15 dose. Linifanib and its metabolite concentrations in plasma and urine were determined using a validated method based on triple quadruple tandem mass spectrometry with a lower limit of quantification of 1.0 ng/mL.
Pharmacokinetic parameter (defined in Table 3) concentrations were determined by non-compartmental analysis using WinNonlin Professional v.5.2 (Pharsight Corp., Cary, NC). […] Additional samples were collected at C3D1 (pre-dose) and every second cycle until study completion or until C15D1. Concentrations for samples at C3D1 and subsequent samples, and data from C1D1 to C1D15 were included in the nonlinear mixed effects models to explore covariates such as age, body weight, and gender (data not shown). Following single-dose linifanib at 0.25 mg/kg, a post hoc analysis compared the pharmacokinetics between the Japanese patients in the current study and non-Japanese patients in two phase 1 studies: Caucasian patients receiving […] linifanib (Abbott, unpublished) and the non-Japanese segment of Asian patients receiving 0.10–0.30 mg/kg linifanib.

[4] = system: solid tumors; experiment: Tumor response per RECIST (CT or MRI), phase 1 study; type: in vivo, human (Japanese patients with solid tumors)
Protocol: Baseline evaluations included physical examination, body weight, vital signs, 12-lead electrocardiogram, ECOG PS assessment, pregnancy test, laboratory tests, and multiple-gated acquisition scan/echocardiogram. Tumor response and/or disease progression was assessed by computerized tomography (CT) scan or magnetic resonance imaging (MRI) per RECIST [20] at screening and on Day (D) 1 of every second cycle prior to the subsequent treatment period, until tumor progression or until final visit. Complete response and partial response (PR) were defined according to RECIST [20]; objective response rate (ORR) was defined as the proportion of patients with best response of PR or CR among the study population. Safety assessments included laboratory test results and adverse events (AEs), which were graded according to CTCAE v3 [18] and coded by medical dictionary of regulatory activities (MedDRA) 1.0.

[5] = design: method as in PMID 19720910; settings: non-Japanese Asian patients, 0.10–0.30 mg/kg single dose, mean ± SD, N 31; calculated from ref 14; cited from earlier work
[6] = system: HT1080 fibrosarcoma; design: method as in PMID 16648571; settings: predicted based on preclinical murine HT1080 fibrosarcoma model; cited from earlier work
[7] = 0.05 mg/kg once daily, multiple dose (C1D15), mean ± SD, N 3
[8] = 0.05 mg/kg oral, single dose (C1D1), mean ± SD, N 3
[9] = 0.10 mg/kg once daily, multiple dose (C1D15), mean ± SD, N 5
[10] = 0.10 mg/kg oral, single dose (C1D1), mean ± SD, N 6
[11] = 0.20 mg/kg once daily, multiple dose (C1D15), mean ± SD, N 3
[12] = 0.20 mg/kg oral, single dose (C1D1), mean ± SD, N 3
[13] = 0.25 mg/kg once daily, multiple dose (C1D15), mean ± SD, N 5
[14] = 0.25 mg/kg oral, single dose (C1D1), mean ± SD, N 6
[15] = human, plasma, 0.1 mg/kg, 0.10 mg/kg oral, single dose (C1D1), mean ± SD, N 6
[16] = human, plasma, 0.2 mg/kg, 0.20 mg/kg oral, single dose (C1D1), mean ± SD, N 3
[17] = human, plasma, 0.05 mg/kg oral, single dose (C1D1), mean ± SD, N 3
[18] = human, plasma, 0.25 mg/kg oral, single dose (C1D1), mean ± SD, N 6

SMILES: Cc1ccc(F)c(NC(=O)Nc2ccc(-c3cccc4[nH]nc(N)c34)cc2)c1 [linifanib, N-(4-(3-amino-1H-indazol-4-yl)phenyl)-N’-(2-fluoro-5-methylphenyl)urea]
- patients with Grade 3 hypertension ([1]; non-Japanese Asian patients, recommended phase 2 dose): 8%
- recommended phase 2 dose ([1]; prior phase 1 study in non-Japanese): 0.25 mg/kg
- DN AUC24 [2]: 0.21 ± 0.04 µg·h/mL/mg
- DN C max [2]: 0.018 ± 0.005 µg/mL/mg
- T max [2]: 1.77 ± 0.44 h
- R (accumulation ratio calculated as DN AUC24 between D15 and D1) ([3]; 0.05 mg/kg once daily, mean ± SD, N 3): 1.58 ± 0.34
- R (accumulation ratio calculated as DN AUC24 between D15 and D1) ([3]; 0.10 mg/kg once daily, mean ± SD, N 5): 1.46 ± 0.27
- R (accumulation ratio calculated as DN AUC24 between D15 and D1) ([3]; 0.20 mg/kg once daily, mean ± SD, N 3): 1.56 ± 0.08
- R (accumulation ratio calculated as DN AUC24 between D15 and D1) ([3]; 0.25 mg/kg once daily, mean ± SD, N 5): 1.46 ± 0.23
- dose proportionality of pharmacokinetics ([3]; 0.10–0.25 mg/kg, single and once-daily dosing): dose-proportional
- DN AUC24 [3, 7]: 0.77 ± 0.18 µg·h/mL/mg
- DN C max [3, 7]: 0.051 ± 0.007 µg/mL/mg
- DN AUC24 [3, 8]: 0.49 ± 0.08 µg·h/mL/mg
- DN C max [3, 8]: 0.036 ± 0.007 µg/mL/mg
- DN AUC24 [3, 9]: 0.50 ± 0.11 µg·h/mL/mg
- DN C max [3, 9]: 0.034 ± 0.008 µg/mL/mg
- DN AUC24 [3, 10]: 0.33 ± 0.04 µg·h/mL/mg
- DN C max [3, 10]: 0.026 ± 0.004 µg/mL/mg
- DN AUC24 [3, 11]: 0.52 ± 0.02 µg·h/mL/mg
- DN C max [3, 11]: 0.036 ± 0.003 µg/mL/mg
- DN AUC24 [3, 12]: 0.33 ± 0.01 µg·h/mL/mg
- DN C max [3, 12]: 0.028 ± 0.007 µg/mL/mg
- DN AUC24 [3, 13]: 0.37 ± 0.06 µg·h/mL/mg
- DN C max [3, 13]: 0.028 ± 0.002 µg/mL/mg
- DN AUC24 [3, 14]: 0.25 ± 0.02 µg·h/mL/mg
- DN C max [3, 14]: 0.019 ± 0.004 µg/mL/mg
- Cmax [3, 15]: 152 ± 36 ng/mL
- AUC [3, 15]: 1910 ± 380 ng·h/mL
- Tmax ([3]; human, plasma, 0.1 mg/kg, 0.10 mg/kg oral, single dose (C1D1), mean ± SD, N 6, read-out: T max): 1.67 ± 0.52 h
- Cmax [3, 16]: 305 ± 70 ng/mL
- AUC [3, 16]: 3600 ± 430 ng·h/mL
- Tmax ([3]; human, plasma, 0.2 mg/kg, 0.20 mg/kg oral, single dose (C1D1), mean ± SD, N 3, read-out: T max): 1.67 ± 0.57 h
- Cmax ([3]; human, plasma, oral, 0.1 mg/kg, 0.10 mg/kg once daily, multiple dose (C1D15), mean ± SD, N 5): 186 ± 64 ng/mL
- Tmax ([3]; human, plasma, oral, 0.1 mg/kg, 0.10 mg/kg once daily, multiple dose (C1D15), mean ± SD, N 5, read-out: T max): 2.2 ± 0.45 h
- AUC ([3]; human, plasma, oral, 0.1 mg/kg, 0.10 mg/kg once daily, multiple dose (C1D15), pre-dose concentration assumed equal to 24 h, mean ± SD, N 5): 2820 ± 1030 ng·h/mL
- Cmax ([3]; human, plasma, oral, 0.2 mg/kg, 0.20 mg/kg once daily, multiple dose (C1D15), mean ± SD, N 3): 390 ± 41 ng/mL
- Tmax ([3]; human, plasma, oral, 0.2 mg/kg, 0.20 mg/kg once daily, multiple dose (C1D15), mean ± SD, N 3, read-out: T max): 2.33 ± 0.58 h
- AUC ([3]; human, plasma, oral, 0.2 mg/kg, 0.20 mg/kg once daily, multiple dose (C1D15), pre-dose concentration assumed equal to 24 h, mean ± SD, N 3): 5630 ± 920 ng·h/mL
- half-life ([3]; human, plasma, oral, after repeated daily dosing, associated with accumulation ratio 1.5, read-out: effective half-life (converted)): 15 h
- Cmax ([3]; human, plasma, oral, 0.05 mg/kg once daily, multiple dose (C1D15), mean ± SD, N 3): 128 ± 17 ng/mL
- Tmax ([3]; human, plasma, oral, 0.05 mg/kg once daily, multiple dose (C1D15), mean ± SD, N 3, read-out: T max): 2.34 ± 0.57 h
- AUC ([3]; human, plasma, oral, 0.05 mg/kg once daily, multiple dose (C1D15), pre-dose concentration assumed equal to 24 h, mean ± SD, N 3): 1920 ± 450 ng·h/mL
- Cmax ([3]; human, plasma, oral, 0.25 mg/kg once daily, multiple dose (C1D15), mean ± SD, N 5): 418 ± 55 ng/mL
- Tmax ([3]; human, plasma, oral, 0.25 mg/kg once daily, multiple dose (C1D15), mean ± SD, N 5, read-out: T max): 2.2 ± 0.45 h
- AUC ([3]; human, plasma, oral, 0.25 mg/kg once daily, multiple dose (C1D15), pre-dose concentration assumed equal to 24 h, mean ± SD, N 5): 5460 ± 1160 ng·h/mL
- Cmax [3, 17]: 90 ± 18 ng/mL
- AUC [3, 17]: 1230 ± 210 ng·h/mL
- Tmax ([3]; human, plasma, 0.05 mg/kg oral, single dose (C1D1), mean ± SD, N 3, read-out: T max): 1.65 ± 0.56 h
- Cmax [3, 18]: 305 ± 68 ng/mL
- AUC [3, 18]: 3780 ± 480 ng·h/mL
- Tmax ([3]; human, plasma, 0.25 mg/kg oral, single dose (C1D1), mean ± SD, N 6, read-out: T max): 2.33 ± 1.03 h
- Tmax ([3]; human, plasma, across all dose levels (0.05–0.25 mg/kg oral), read-out: average T max): ~2 h
- ORR ([4]; 2 of 18 patients, RECIST): 11.1%
- patients with tumor reduction >5% by RECIST ([4]; 12/18 patients): 67%
- patients with SD for ≥12 weeks ([4]; 18 patients): 11
- patients with confirmed PR ([4]; 18 patients, 0.20 mg/kg (breast cancer) and 0.25 mg/kg (lung cancer)): Two
- patients with reduction in summed tumor dimensions of ≥5% ([4]; of the 18 patients, cohorts 0.10, 0.20, and 0.25 mg/kg): 12 and 12/18
- median duration of response ([4]; range 2.8–3.5): 3.2 months
- median progression-free survival (PFS) ([4]; range 2.8–9.8): 5.7 months
- patients who continued linifanib with clinical benefit for ≥48 weeks ([4]; sarcoma, breast, lung, thymic cancer, best response SD): Four
- DN AUC24 [5]: 0.25 ± 0.10 µg·h/mL/mg
- DN C max [5]: 0.020 ± 0.008 µg/mL/mg
- T max [5]: 2.94 ± 1.27 h
- efficacious plasma exposure at steady state [6]: ≥ 2700 ng·h/mL
